The nature of series [1]: Solubility of photoinitiator in sol-gel coating and layer (visual). The format is physicochemical. To be noted: sol-gel coating on PET foil; result in words. On the procedure:
A sol-gel coating solution consisting of 15% TEOS, 5% epoxy-modified silanes, 75% organic solvents, and 5% water was prepared according to protocols known (R.B. Figueira et al.; Journal of Coatings Technology and Research 2015, 12, 1-35). To 10 g of this coating solution were added 0.05 g of photoinitiator test compounds (see Table 5/example 7), followed by 1 hour of stirring at room temperature. This solution was applied to a PET foil at a wet thickness of 30 µm by a doctor blade device. This material was illuminated at 254 nm for 2 min or for 5 min (UV-Crosslinker device; UVP). The abrasion resistance (500 cycles) was determined with a standard method (taber-abraser) and the decrease in gloss was measured. […] TABLE 5 / Example 7

A short description of series [2]: Solubility in nonpolar solvents (MEK/dowanol 1:1). The format is physicochemical. The conditions noted are these: measured in MEK/dowanol 1:1. From the text: Thus, efficacy of photoinitiation, when given by radicals per mass, is higher for low molecular weight mixtures of the embodiment. Furthermore, the solubility in nonpolar solvents (such as ketones, ethers, esters) is improved.

SMILES strings stand for the structures. Counter-ions that a name gives are not always drawn.

On to `CC(C)(C)c1ccc([I+]c2ccc(C(C)(C)C)cc2)cc1.FC(F)(F)C([O][Al-]([O]C(C(F)(F)F)(C(F)(F)F)C(F)(F)F)([O]C(C(F)(F)F)(C(F)(F)F)C(F)(F)F)[O]C(C(F)(F)F)(C(F)(F)F)C(F)(F)F)(C(F)(F)F)C(F)(F)F` [bis-(4-tert.-butyl-phenyl)-iodonium tetrakis(perfluoro-tert.-butoxy)aluminate], for which the “solubility in the coating and layer” value in series [1] was “visible precipitates and spots in the coat”.
In series [2], `CC(C)(C)c1ccc([I+]c2ccc(C(C)(C)C)cc2)cc1` [comparative iodonium salt 1, bis[4-(1,1-dimethylethyl)phenyl]-iodonium tetraphenylborate] gave a solubility of 149 mg/mL.

As usually defined, the solubility is the concentration that dissolves in the medium under given conditions.

The record behind these values is patent EP4101830A1, “NOVEL DIARYLIODONIUM SALT MIXTURES AS LOW MOLECULAR WEIGHT PHOTOINITIATORS WITH MINIMIZED CRYSTALLIZATION BEHAVIOR AND ELEVATED SOLUBILITY” (FEW Chemicals GmbH, priority 2021, dated 2022).
